The target of the assay is T1, N-formyl peptide receptor 2 (Homo sapiens, UniProt P25090).
T1 sequence (P25090 whole entry): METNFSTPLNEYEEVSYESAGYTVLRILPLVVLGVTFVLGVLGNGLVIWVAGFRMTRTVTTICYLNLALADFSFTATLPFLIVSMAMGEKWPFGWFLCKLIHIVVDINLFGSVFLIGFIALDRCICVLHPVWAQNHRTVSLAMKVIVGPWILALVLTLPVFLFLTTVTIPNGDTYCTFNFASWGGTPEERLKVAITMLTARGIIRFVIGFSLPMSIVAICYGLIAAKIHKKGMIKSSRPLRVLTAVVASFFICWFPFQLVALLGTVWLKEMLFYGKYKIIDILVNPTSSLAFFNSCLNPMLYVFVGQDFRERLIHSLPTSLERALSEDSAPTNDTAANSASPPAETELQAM
Put plainly: FLIPR: HEK-Gα16 cells stably expressing the human FPR2 receptor was utilized. Cells were plated into 384-well poly-D-lysine coated plates at a density of 18,000 cells per well one day prior to use. The growth media was DMEM medium supplemented with 10% fetal bovine serum (FBS), 1% antibiotic-antimycotic, 50 μg/ml hygromycin, and 400 μg/ml geneticin. On the day of the experiment, the cells were ….

Data on 1 molecule can be found in ChEMBL document CHEMBL5726535, “Use of agonists of formyl peptide receptor 2 for treating ocular inflammatory diseases” (2019).

Description: FLIPR: HEK-Gα16 cells stably expressing the human FPR2 receptor was utilized. Cells were plated into 384-well poly-D-lysine coated plates at a density of 18,000 cells per well one day prior to use. The growth media was DMEM medium supplemented with 10% fetal bovine serum (FBS), 1% antibiotic-antimycotic, 50 μg/ml hygromycin, and 400 μg/ml geneticin. On the day of the experiment, the cells were washed twice with Hank's Balanced Salt Solution supplemented with 20 mM HEPES (HBSS/hepes buffer). The cells were then dye loaded with 2 μM Fluo-4 diluted in the HBSS/Hepes buffer and incubated at 37° C. for 40 minutes. Extracellular dye was removed by washing the cell plates four times prior to placing the plates in the FLIPR (Fluorometric Imaging Plate Reader, Molecular Devices). Ligands were diluted in HBSS/Hepes buffer and prepared in 384-well microplates.

What is called EC50 is the concentration at which the effect is half-maximal. On to `NC(=O)C1C(C(=O)Nc2ccc(Br)cc2)C2CCC1C21CC1` (single isomer, unassigned), for which the EC50 is less than 1 nM.
